Assay results: patent US8993756B2 (Merck Sharp & Dohme Corp., priority 2011, dated 2015)

Assays:
JAK2 = JAK2 (Homo sapiens (Human), UniProt O60674); experiment: Jak Biochemical HTRF Assay (JAK2); settings: recombinant GST-tagged catalytic domain, [ATP] 8.5 μM
JAK3 = JAK3 (Homo sapiens (Human), UniProt P52333); experiment: Jak Biochemical HTRF Assay (JAK3); settings: recombinant GST-tagged catalytic domain, [ATP] 2.9 μM
Chain of JAK3 (P52333 822-1111): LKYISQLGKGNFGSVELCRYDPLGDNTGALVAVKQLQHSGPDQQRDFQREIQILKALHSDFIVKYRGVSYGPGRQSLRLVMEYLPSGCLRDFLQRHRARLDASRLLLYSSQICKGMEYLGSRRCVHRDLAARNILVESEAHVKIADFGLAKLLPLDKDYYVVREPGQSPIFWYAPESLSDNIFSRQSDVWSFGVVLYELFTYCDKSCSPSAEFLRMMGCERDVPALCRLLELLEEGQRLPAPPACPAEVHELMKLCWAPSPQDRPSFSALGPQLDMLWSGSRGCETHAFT

Chain of JAK2 (O60674 849-1124): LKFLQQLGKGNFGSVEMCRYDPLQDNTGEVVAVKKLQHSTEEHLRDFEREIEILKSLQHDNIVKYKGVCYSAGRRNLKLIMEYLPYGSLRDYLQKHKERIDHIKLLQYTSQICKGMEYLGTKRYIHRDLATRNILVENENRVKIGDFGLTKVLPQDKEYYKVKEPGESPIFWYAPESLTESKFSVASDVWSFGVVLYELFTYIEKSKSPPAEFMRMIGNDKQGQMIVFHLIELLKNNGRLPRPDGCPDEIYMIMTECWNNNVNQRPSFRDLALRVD

Structure (SMILES)	IC50 (JAK2; given as range class)	IC50 (JAK3; given as range class)	IC50 (JAK2)	IC50 (JAK3)
CCOC(=O)c1c[nH]c2ncnc(-c3ccc(C(=O)NC4CCOC4)cc3)c12 (stereo not drawn) [Example 1-100, ethyl 4-[4-(tetrahydrofuran-3-ylcarbamoyl)phenyl]-7H-pyrrolo[2,3-d]pyrimidine-5-carboxylate]	> 500 nM	10 to 500 nM	–	–
CCOC(=O)c1c[nH]c2ncnc(-c3cccc(OC(F)F)c3)c12 [Example 1-59, ethyl 4-[3-(difluoromethoxy)phenyl]-7H-pyrrolo[2,3-d]pyrimidine-5-carboxylate]	10 to 500 nM	10 to 500 nM	–	–
C=C(C)C(=O)Nc1cc(-c2ncnc3[nH]cc(C(=O)OCC)c23)ccc1OC [Example 4-17, ethyl 4-{4-methoxy-3-[(2-methylacryloyl)amino]phenyl}-7H-pyrrolo[2,3-d]pyrimidine-5-carboxylate]	–	–	> 1500 nM	0.11 nM
CCOC(=O)c1c[nH]c2ncnc(-c3cccc(F)c3)c12 [Example 1-42, ethyl 4-(3-fluorophenyl)-7H-pyrrolo[2,3-d]pyrimidine-5-carboxylate]	–	–	121 nM	9 nM
CCOC(=O)c1c[nH]c2ncnc(-c3cnn4c3CCCC4)c12 [Example 1-62, ethyl 4-(4,5,6,7-tetrahydropyrazolo[1,5-a]pyridin-3-yl)-7H-pyrrolo[2,3-d]pyrimidine-5-carboxylate]	> 500 nM	10 to 500 nM	–	–
CCOC(=O)c1c[nH]c2ncnc(-c3ccc4c(c3)n(C)c(=O)n4C)c12 [Example 1-66, ethyl 4-(1,3-dimethyl-2-oxo-2,3-dihydro-1H-benzimidazol-5-yl)-7H-pyrrolo[2,3-d]pyrimidine-5-carboxylate]	> 500 nM	10 to 500 nM	–	–
CCOC(=O)c1c[nH]c2ncnc(-c3ccc(N4CCN(C)CC4)cc3)c12 [Example 1-85, ethyl 4-[4-(4-methylpiperazin-1-yl)phenyl]-7H-pyrrolo[2,3-d]pyrimidine-5-carboxylate]	> 500 nM	10 to 500 nM	–	–
CCOC(=O)c1c[nH]c2ncnc(-c3ccc4c(c3)NCC4)c12 [Example 1-31, ethyl 4-(2,3-dihydro-1H-indol-6-yl)-7H-pyrrolo[2,3-d]pyrimidine-5-carboxylate]	–	–	91 nM	4.6 nM
CCOC(=O)c1c[nH]c2ncnc(-c3cccnc3)c12 [Example 1-28, ethyl 4-pyridin-3-yl-7H-pyrrolo[2,3-d]pyrimidine-5-carboxylate]	> 500 nM	10 to 500 nM	–	–
CCOC(=O)c1c[nH]c2ncnc(-c3cccc(-n4cccn4)c3)c12 [Example 1-103, ethyl 4-[3-(1H-pyrazol-1-yl)phenyl]-7H-pyrrolo[2,3-d]pyrimidine-5-carboxylate]	> 500 nM	10 to 500 nM	–	–
CCOC(=O)c1c[nH]c2ncnc(-c3cc(N)nc(OC)c3)c12 [Example 1-4]	> 500 nM	10 to 500 nM	–	–
CCOC(=O)c1c[nH]c2ncnc(-c3ccc(C(F)(F)F)cc3)c12 [Example 1-36, ethyl 4-[4-(trifluoromethyl)phenyl]-7H-pyrrolo[2,3-d]pyrimidine-5-carboxylate]	> 500 nM	10 to 500 nM	–	–
C=CC(=O)Nc1cc(-c2ncnc3[nH]cc(C(=O)OCC)c23)ccc1Cl [Example 4-14, ethyl 4-[3-(acryloylamino)-4-chlorophenyl]-7H-pyrrolo[2,3-d]pyrimidine-5-carboxylate]	–	–	> 1500 nM	0.066 nM
CCOC(=O)c1c[nH]c2ncnc(-c3cccc(OC)c3)c12 [Example 1-17, ethyl 4-(3-methoxyphenyl)-7H-pyrrolo[2,3-d]pyrimidine-5-carboxylate]	10 to 500 nM	10 to 500 nM	–	–

Results, then the compound that gave them:

IC50 (JAK2; given as range class)	IC50 (JAK3; given as range class)	IC50 (JAK2)	IC50 (JAK3)	Structure (SMILES)
> 500 nM	10 to 500 nM	–	–	CCOC(=O)c1c[nH]c2ncnc(-c3cccc(NC(=O)NCC#N)c3)c12 [Example 9-1, Ethyl 4-(3-(3-(cyanomethyl)ureido)phenyl)-7H-pyrrolo[2,3-d]pyrimidine-5-carboxylate]
–	–	> 1500 nM	0.68 nM	C=C(C)C(=O)Nc1cc(-c2ncnc3[nH]cc(C(=O)OCC)c23)cnc1OC [Example 4-32, ethyl 4-{6-methoxy-5-[(2-methylacryloyl)amino]pyridin-3-yl)-7H-pyrrolo[2,3-d]pyrimidine-5-carboxylate]
10 to 500 nM	10 to 500 nM	–	–	COc1ccccc1-c1c[nH]c2ncnc(-c3cn[nH]c3)c12 [Example 33-6, 5-(2-methoxyphenyl)-4-(1H-pyrazol-4-yl)-7H-pyrrolo[2,3-d]pyrimidine]
–	–	> 1500 nM	8 nM	C=C(C)C(=O)Nc1cccc(-c2ncnc3[nH]cc(-c4ncco4)c23)c1 [Example 22, N-(3-(5-(Oxazol-2-yl)-7H-pyrrolo[2,3-d]pyrimidin-4-yl)phenyl)methacrylamide]
> 500 nM	10 to 500 nM	–	–	CCOC(=O)c1c[nH]c2ncnc(-c3cccc(NC(=O)C=C(C)C)c3)c12 [Example 5-27, ethyl 4-{3-[(3-methylbut-2-enoyl)amino]phenyl}-7H-pyrrolo[2,3-d]pyrimidine-5-carboxylate]
–	–	> 1500 nM	1.5 nM	C=C(C)C(=O)Nc1cc(-c2ncnc3[nH]cc(C(=O)OCC)c23)ccc1CN(C)C [Example 4-30, ethyl 4-{4-[(dimethylamino)methyl]-3-[(2-methylacryloyl)amino]phenyl}-7H-pyrrolo[2,3-d]pyrimidine-5-carboxylate]
–	–	> 1500 nM	5.2 nM	C=C(C)C(=O)Nc1cccc(-c2ncnc3[nH]cc(-c4ccccc4C)c23)c1 [Example 20-6, 2-methyl-N-{3-[5-(2-methylphenyl)-7H-pyrrolo[2,3-d]pyrimidin-4-yl]phenyll}prop-2-enamide]
> 500 nM	10 to 500 nM	–	–	CCOC(=O)c1c[nH]c2ncnc(-c3cccc(C(=O)NCC#N)c3)c12 [Example 8-1]
–	–	> 1500 nM	8.3 nM	C=C(C)C(=O)Nc1cccc(-c2ncnc3[nH]cc(C4CCOCC4)c23)c1 [Example 23, N-(3-(5-(Tetrahydro-2H-pyran-4-yl)-7H-pyrrolo[2,3-d]pyrimidin-4-yl)phenyl)methacrylamide]
–	–	> 1500 nM	0.066 nM	C=C(CN(C)C)C(=O)Nc1cccc(-c2ncnc3[nH]cc(C(=O)OCC)c23)c1 [Example 14, Ethyl-4-[3-({2-[(dimethylamino)methyl]acryloyl}amino)phenyl]-7H-pyrrolo[2,3-d]pyrimidine-5-carboxylate]
> 500 nM	10 to 500 nM	–	–	C/C=C(/OC)C(=O)Nc1cccc(-c2ncnc3[nH]cc(C(=O)OCC)c23)c1 [Example 5-38, ethyl 4-(3-{[(2E)-2-methoxybut-2-enoyl]amino}phenyl)-7H-pyrrolo[2,3-d]pyrimidine-5-carboxylate]
–	–	> 1500 nM	0.47 nM	C=C(C)C(=O)Nc1cc(-c2ncnc3[nH]cc(C(=O)OCC)c23)c[nH]c1=O [Example 4-33, ethyl 4-{5-[(2-methylacryloyl)amino]-6-oxo-1,6-dihydropyridin-3-yl}-7H-pyrrolo[2,3-d]pyrimidine-5-carboxylate]
–	–	> 1500 nM	0.052 nM	C=C(CNS(C)(=O)=O)C(=O)Nc1cccc(-c2ncnc3[nH]cc(C(=O)OCC)c23)c1 [Example 13-1, Ethyl 4-(3-(2-(methylsulfonamidomethyl)acrylamido)phenyl)-7H-pyrrolo[2,3-d]pyrimidine-5-carboxylate]
